Experiment [1] concerns TNF-α production from the THP-1 cell culture after LPS stimulation. Kind of experiment: LPS-induced TNF-α production in PMA-differentiated THP-1 macrophage culture (ELISA). The note with it: for TNF-α in medium: LPS, LPS alone 8.85±0.81; for TNF-α production after LPS: 1 h before 100 ng/mL LPS, 24 h. The class given is cell-based, human. A general note: ELISA stands for enzyme-linked immunosorbent assay.

In experiment [2] the test system is TNF-α release from THP-1 cells after oxLDL stimulation. Kind of experiment: oxLDL-induced TNF-α release in THP-1 macrophage culture (ELISA). Format: cell-based, human. The note with it: for TNF-α in medium: oxLDL, oxLDL alone 2.64±0.61; for TNFα in medium: oxLDL 10 μg/mL, oxLDL alone 1.70±0.06. The protocol: (§1) THP-1 cells were grown in the RPMI-1640 medium containing 10% fetal bovine serum at 37° C. in 5% CO2. The cells were differentiated to macrophages after treatment of the culture with 100 nM PMA for 24 hours. The cell suspension (5×10^5) was added in 0.5 mL into each well of the tissue culture plates. For each experiment, naloxone was prepared immediately before use. LPS was dissolved in sterile water and stored at −70° C. in aliquots. LDL was isolated from human endotoxin-free heparin plasma and was oxidized using CuSO4. In brief, LDL (1 mL, 1 mg/mL) was dialyzed in 500 mL phosphate-buffered saline (PBS, pH 7.4) overnight. Copper sulfate was added to a final concentration of 5 μM, and the LDL was allowed to oxidize at room temperature for 24 hours.
(§2) The supernatants were harvested and the TNF-α, IL-6, and MCP-1 levels were determined by ELISA. Superoxide production in the THP-1 cell culture was measured by lucigenin-enhanced chemiluminescence as described previously (Khadour F H, Panas D, Ferdinandy P, et al. Am J Physiol Heart Circ Physiol, 28:H1108-15 2002). LPS-treated THP-1 cells were treated with PBS containing 1.25 mM lucigenin, and counts were obtained for a 10-minute period in a luminometer (Berthold Technologies, Germany) as relative light units (RLU) emitted. Background counts determined in cell-free preparations were subtracted. Superoxide levels were reported as RLU per 10 minutes and were normalized to the volume (mL) of cell suspension added (i.e., RUL/10 min/mL).

Experiment [3] relates to NADPH oxidase-deficient mice. The conditions noted are these: Zhang et al. 2004; cited from earlier work.
Experiment [4] deals with IL-6 release from THP-1 cells after oxLDL stimulation. Kind of experiment: oxLDL-induced IL-6 release in THP-1 macrophage culture (ELISA). Format: cell-based, human. The protocol: as §1, §2
The subject of experiment [5] is superoxide production in THP-1 cell culture. Kind of experiment: LPS-induced macrophage superoxide production, lucigenin-enhanced chemiluminescence. The class given is cell-based, human. The procedure:
as §1, with “For each experiment, naloxone was prepared immediately before use.” left out
as §2
We used lucigenin-enhanced chemiluminescence to assess the DM effect on macrophage superoxide production after stimulation.

The subject of experiment [6] is superoxide production in left carotid arteries. Kind of experiment: Superoxide in left common carotid artery of apoE-deficient mice, DHE staining. Format: in vivo. The procedure:
Representative photomicrographs of the […] sections in apoE-deficient mice were treated daily with water only (A) or DM 5 mg/kg/day (B), 10 mg/kg/day (C), 20 mg/kg/day (D) or 40 mg/kg/day (E) for 10 weeks. […] The results are representative of 4 independent experiments with 6-8 independently analyzed mice/group. (bar=50 μm)
Having established the DM inhibitory effect on macrophage activation and NADPH oxidase, we next examined the functional consequences of which in vivo. […] Sections of left carotid arteries from the mice were stained with DHE and then imaged with a laser scanning confocal microscope.

In experiment [7] the test system is MCP-1 release from THP-1 cells after oxLDL stimulation. Kind of experiment: oxLDL-induced MCP-1 release in THP-1 macrophage culture (ELISA). Format: cell-based, human. The conditions noted are these: 0.01 μM pretreatment, oxLDL alone 2.23±0.34. The protocol: as §1, with “For each experiment, naloxone was prepared immediately before use.” left out
as §2, with “Superoxide levels were reported as RLU per 10 minutes and were normalized to the volume (mL) of cell suspension added (i.e., RUL/10 min/mL).” left out

The subject of the next experiment is plasma TNF-α. Kind of experiment: Plasma TNF-α in LPS-treated FVB mice (ELISA). Format: in vivo. The note with it: 6 h, LPS only 576.1±43.6. The protocol:
(§3) All mice then received 20 mg/kg LPS by intraperitoneal injection. Blood samples were obtained at 6 hours after LPS injection from a catheter placed in the left carotid artery. Blood samples were centrifuged, and the plasma TNF-α levels were measured by ELISA. Lungs were harvested from the animals 6 hours after LPS injection in each group as described above. The tissues were fixed in 4% paraformaldehyde and embedded in paraffin for histopathological examination. The presence of inflammatory cells in lungs was determined by immunofluorescence. The sections were incubated with rat monoclonal antibody against mouse CD45, a leukocyte common antigen (1:50 dilution, Pharmingen). After washing, fluorescein isothiocyanate-conjugated sheep […] immunoglobulin (Amersham Pharmacia Biotech) was applied as a secondary antibody. […] The total CD45-positive cell number was counted in five randomly selected sections under high power field magnification (400×) for each mouse. Oxidative fluorescent microtopography with the oxidative fluorescent dye dihydroethidium (DHE) was used to evaluate the in situ production of superoxide in aorta. Aortas were harvested from the animals at 6 hours after LPS injection in each group as described above. Unfixed frozen ring segments were cut into 30-μm-thick sections and placed on a glass slide. DHE (10 μM) was topically applied to each tissue section and a cover slip was applied. Slides were incubated in a light-protected humidified chamber at 37° C. for 30 minutes. Fluorescence was detected with a laser scanning confocal microscope (Leica Microsystems, Germany) with excitation at 488-nm and detection at 585-nm using a long-pass filter.

Experiment [8] concerns MCP-1 release from THP-1 cells after LPS stimulation. Kind of experiment: LPS-induced MCP-1 release in THP-1 macrophage culture (ELISA). Format: cell-based, human. The note with it: 1 μM pretreatment, LPS alone 9.22±1.17. The protocol: as §1, with “For each experiment, naloxone was prepared immediately before use.” left out
as §2, with “Superoxide levels were reported as RLU per 10 minutes and were normalized to the volume (mL) of cell suspension added (i.e., RUL/10 min/mL).” left out

Experiment [9] relates to CD45-positive cells in lungs. Kind of experiment: Pulmonary inflammatory cell (CD45-positive) infiltration in LPS-treated mice, immunofluorescence. Format: in vivo. The note with it: LPS only 103±16. The procedure: as §3

On to `COc1ccc2c(c1)[C@]13CCCC[C@@H]1[C@H](C2)N(C)CC3` [DM, (+)-3-methoxy-17-methyl-9α,13α,14α-morphinan], for which the TNF-α in medium in experiment [1] (DM 0.1 μM pretreatment) was determined as 6.42 ± 0.73 ng/mL; in [1] (DM 1 μM pretreatment) it was 5.85 ± 1.12 ng/mL; in experiment [2] (DM 0.01 μM pretreatment) it was 1.80 ± 0.53 ng/mL; in experiment [2] (DM 0.1 μM pretreatment), 1.75 ± 0.33 ng/mL; in experiment [2] (DM 1 μM pretreatment), 1.77 ± 0.42 ng/mL. The “TNF-α production after LPS” value in [1] (DM pretreatment 10^−1 μM) was found to be 72 ± 2 % control; in experiment [1] (DM pretreatment 10^−4 μM) it was 81 ± 9 % control; in [1] (DM pretreatment 10^−8 μM), 95 ± 7 % control. In experiment [3], the anti-inflammatory effect result was “anti-inflammatory effect was not observed”. Further, the IL-6 in medium in experiment [4] (DM 0.01 μM pretreatment, oxLDL alone 2.46±1.20) turned out to be 1.40 ± 0.58 ng/mL; in experiment [4] (DM 0.1 μM pretreatment, oxLDL alone 2.46±1.20) it was 1.28 ± 0.64 ng/mL; in [4] (DM 1 μM pretreatment, oxLDL alone 2.46±1.20), 1.33 ± 0.67 ng/mL. The macrophage superoxide production is listed as 341,000±82,000 RLU/15 min/mL in experiment [5] (DM 0.01 μM pretreatment, LPS alone 612,000±105,000); 303,000±109,000 RLU/15 min/mL in experiment [5] (DM 0.1 μM pretreatment, LPS alone 612,000±105,000); 257,000±45,000 RLU/15 min/mL in experiment [5] (DM 1 μM pretreatment, LPS alone 612,000±105,000). Also, in experiment [6] (DM 5, 10, 20 or 40 mg/kg/day for 10 weeks vs water only), the “DHE staining (superoxide), FIG. 14” value is given as “staining was much more reduced”. Besides, the “DHE fluorescence intensity in sections of left carotid arteries (superoxide)” value in experiment [6] (DM 10, 20, and 40 mg/kg/day for 10 weeks) was “significantly reduced the increase of fluorescence intensity”.

For `C=CCN1CC[C@]23c4c5ccc(O)c4O[C@H]2C(=O)CC[C@@]3(O)[C@H]1C5` [Naloxone, 17-allyl-4,5α-epoxy-3,14-dihydroxymorphinan-6-one], the TNFα in medium in experiment [1] (0.01 μM pretreatment, LPS 100 ng/mL, LPS alone 8.02±0.42) is 4.28 ± 0.39 ng/mL; in [2] (0.01 μM pretreatment), 0.85 ± 0.12 ng/mL; in [2] (0.1 μM pretreatment), 0.62 ± 0.04 ng/mL; in [2] (1 μM pretreatment) it was 0.60 ± 0.05 ng/mL. The “most effective naloxone concentration range” value in experiment [1] (inhibition of TNF-α production, THP-1, LPS) fell in the range of 0.01 to 1 µM. The “TNF-α production after LPS” value in experiment [1] (naloxone pretreatment 1 μM) was determined as 55 ± 2 % control; in experiment [1] (naloxone pretreatment 10^−1 μM), 51 ± 6 % control; in [1] (naloxone pretreatment 10^−2 μM) it was 53 ± 6 % control; in experiment [1] (naloxone pretreatment 10^−3 μM), 67 ± 3 % control; in [1] (naloxone pretreatment 10^−4 μM), 74 ± 7 % control; in experiment [1] (naloxone pretreatment 10^−5 μM) it was 93 ± 4 % control. Also, in experiment [1] (naloxone pretreatment 10^−6 μM), the “TNF-α production after LPS” value was found to be 90 ± 10 % control. The MCP-1 in medium amounted to 0.95 ± 0.28 ng/mL in experiment [7] and 6.16 ± 0.16 ng/mL in experiment [8]. Besides, the “plasma TNF-α level” value was found to be 452.9 ± 55.0 pg/mL in the experiment with plasma TNF-α (10 mg/kg i.p. before 20 mg/kg LPS), 251.9 ± 59.6 pg/mL with plasma TNF-α (20 mg/kg i.p. before 20 mg/kg LPS) and 288.0 ± 33.9 pg/mL with plasma TNF-α (25 mg/kg i.p. before 20 mg/kg LPS). Further, the IL-6 in medium in experiment [4] (0.01 μM pretreatment, oxLDL alone 1.51±0.08) is 1.05 ± 0.03 ng/mL; in experiment [4] (0.1 μM pretreatment, oxLDL alone 1.51±0.08), 1.01 ± 0.01 ng/mL; in experiment [4] (1 μM pretreatment, oxLDL alone 1.51±0.08) it was 1.05 ± 0.07 ng/mL. Also, the macrophage superoxide production is recorded as 364,000±202,000 RLU/10 min/mL in experiment [5] (0.1 μM pretreatment, LPS alone 817,000±90,000) and 362,000±24,000 RLU/10 min/mL in experiment [5] (1 μM pretreatment, LPS alone 817,000±90,000). In addition, the “infiltration of inflammatory cells in the lungs (CD45-positive cell number)” value is given as 74±10 in experiment [9] (10 mg/kg i.p. before LPS), 58±15 in [9] (20 mg/kg i.p. before LPS) and 62±12 in experiment [9] (25 mg/kg i.p. before LPS).
